# Read-outs that look alike come from different tables or passages of the source.
# Test system: male C57BL/6J mice
# Experiment: Fasting-induced feeding behavior (food intake) of mice
# Type: in vivo
# Settings: oral dose 2 μmol per mouse, 30 min before food
# Description: The effectiveness of selected compounds of the invention on fasting-induced feeding behavior of mice was investigated.
# The experiments were performed according to Asakawa A et al. (Asakawa A et al., Gut 2003, 52: 947-952) with the following technical details:
# Preparation of compounds of the invention: dissolved in dimethylsulfoxide (DMSO) and then diluted in distilled water (i.e. 0.5, 1 and 10% DMSO for 0.5, 1 and 2 μmol/mouse, respectively);
# Preparation of reference substance (positive control) sibutramine: dissolved in distilled water;
# Control substance (negative vehicle control): 10% DMSO in distilled water (compounds of the invention); distilled water (sibutramine);
# Route of administration: p.o.;
# Pretreatment time: 30 min before presenting the food to the animals;
# Volume of administration: 0.5 ml/mouse;
# Animals: male C57BL/6J mice;
# Body weight range: 18.3-21.4 g
# [1] = 20 min, read-out: change of food intake - compounds versus vehicle treated negative control, at 20 min
# [2] = 1 h, read-out: change of food intake - compounds versus vehicle treated negative control, at 1 h
# [3] = 2 h, read-out: change of food intake - compounds versus vehicle treated negative control, at 2 h
# [4] = 4 h, read-out: change of food intake - compounds versus vehicle treated negative control, at 4 h
Structure (SMILES),change in vivo at 2 µmol/mouse [1] [%],change in vivo at 2 µmol/mouse [2] [%],change in vivo at 2 µmol/mouse [3] [%],change in vivo at 2 µmol/mouse [4] [%]
"CC(C)(N)C(=O)N[C@H](Cc1c[nH]c2ccccc12)c1nnc(CCc2c[nH]c3ccccc23)n1Cc1cccc2ccccc12 [Compound 5, (R)-N-(1-(5-(2-(1H-indol-3-yl)ethyl)-4-(naphthalen-1-ylmethyl)-4H-1,2,4-triazol-3-yl)-2-(1H-indol-3-yl)ethyl)-2-amino-2-methylpropanamide]",-56,-58,-53,-51
"CC(C)(N)C(=O)N[C@H](Cc1c[nH]c2ccccc12)c1nnc(CCCc2c[nH]c3ccccc23)n1Cc1cccc2ccccc12 [Compound 11, (R)-N-(1-(5-(3-(1H-indol-3-yl)propyl)-4-(naphthalen-1-ylmethyl)-4H-1,2,4-triazol-3-yl)-2-(1H-indol-3-yl)ethyl)-2-amino-2-methylpropanamide]",-56,-65,-55,-55
"CC(C)(N)C(=O)N[C@H](Cc1c[nH]c2ccccc12)c1nnc(CCc2ccccc2)n1Cc1cccc2ccccc12 [Compound 27, (R)-N-(2-(1H-indol-3-yl)-1-(4-(naphthalen-1-ylmethyl)-5-phenethyl-4H-1,2,4-triazol-3-yl)ethyl)-2-amino-2-methylpropanamide]",-57,-58,-48,-38
"CC(C)(N)C(=O)N[C@H](Cc1c[nH]c2ccccc12)c1nnc(CCc2c[nH]c3ccccc23)n1Cc1ccc(Cl)c(Cl)c1 [Compound 28, (R)-N-(1-(5-(2-(1H-indol-3-yl)ethyl)-4-(3,4-dichlorobenzyl)-4H-1,2,4-triazol-3-yl)-2-(1H-indol-3-yl)ethyl)-2-amino-2-methylpropanamide]",-17,-28,-21,-18
"COc1ccc(Cn2c(CCc3c[nH]c4ccccc34)nnc2[C@@H](Cc2c[nH]c3ccccc23)NC(=O)C2CCNCC2)c(OC)c1 [Compound 31, (R)-N-(1-(5-(2-(1H-indol-3-yl)ethyl)-4-(2,4-dimethoxybenzyl)-4H-1,2,4-triazol-3-yl)-2-(1H-indol-3-yl)ethyl)piperidine-4-carboxamide]",50,20,16,9
"Cc1ccc(Cn2c(CCc3ccccc3)nnc2[C@@H](Cc2c[nH]c3ccccc23)NC(=O)C(C)(C)N)cc1 [Compound 37, (R)-N-(1-(4-(4-methylbenzyl)-5-phenethyl-4H-1,2,4-triazol-3-yl)-2-(1H-indol-3-yl)ethyl)-2-amino-2-methylpropanamide]",-37,-49,-51,-34
"COc1ccc(Cn2c(CCc3c[nH]c4ccccc34)nnc2[C@@H](Cc2c[nH]c3ccccc23)NC(=O)C2CCNCC2)cc1 [Compound 45, (R)-N-(1-(5-(2-(1H-indol-3-yl)ethyl)-4-(4-methoxybenzyl)-4H-1,2,4-triazol-3-yl)-2-(1H-indol-3-yl)ethyl)piperidine-4-carboxamide]",-36,-28,-33,-34
"COc1ccc(Cn2c(CCc3ccccc3)nnc2[C@@H](Cc2c[nH]c3ccccc23)NC(=O)[C@@H]2CCCCN2)cc1 [Compound 48, (S)-N-((R)-1-(4-(4-methoxybenzyl)-5-phenethyl-4H-1,2,4-triazol-3-yl)-2-(1H-indol-3-yl)ethyl)piperidine-2-carboxamide]",-22,-30,-27,-21
